The source of these data is PMC11530689, “Anti colorectal cancer activity and in silico studies of novel pyridine nortopsentin analog as cyclin dependent kinase 6 inhibitor” (Scientific Reports, 2024).

The subject of one test is A549 cell line. Also on record: method as in PMID 11425579. The settings on record: cited from earlier work.
Another test relates to P388 cell line. Also on record: method as in PMID 11425579. The conditions noted are these: cited from earlier work.
The test system of another test is CDK1. Also on record: method as in PMID 28688277. The settings on record: cited from earlier work.
A further test has as its system MCF7 cancer cell line. Also on record: method as in PMID 28688277. The conditions noted are these: cited from earlier work.
In a further test the test system is HCT-116 cells. The test can be described thus: MTT assay, IC50 determination. It is filed as cell-based. The conditions noted are these: Homo sapiens, HCT-116, colorectal cancer cells, comparator. Here is the method:
HCT-116 (colon cancer cell line) was obtained from the American Type Culture Collection (ATCC). The cancer cell line was grown in Dulbecco’s Modified Eagle’s Medium (DMEM) supplemented with 10% fetal bovine serum (FBS), penicillin/streptomycin (100 U/mL and 100 μg/mL, respectively) and 2 mM L-glutamine. The cells were maintained at 37 °C in 5% CO2.
The cytotoxic activity of nortopsintin analogs (4a–4j) was determined by the national cancer institute (NCI, Bethesda, Maryland, USA) against 60 different cancer cell lines at a single concentration of (10^−5 M). For the determination of IC50 value, we used MTT assay kit (Sigma) according to the manufacturer’s protocol. HCT-116 cells were seeded into a 96-well plate at a concentration of 20,000 cells/well. After 24 h, the media was aspirated and replaced with serum-free media containing serial dilutions of the 4i compound. The cells were treated for 48 h in triplicates. […] The percentage of cytotoxicity was calculated using the following equation: % Cytotoxicity = [1 − (AVx/AVNC)] × 100.
Where, AVx denotes the average absorbance of the sample and AVNC denotes the average absorbance of the negative control. The absorbance was measured at 570 nm with reference at 690 nm.
On the technique in general: Formazan colour is commonly taken as a measure of viable cells.

Turning to `COc1ccc2c(-c3cc(C(F)(F)F)cc(-c4cn(S(=O)(=O)c5ccc(C)cc5)c5cc(OC)ccc45)n3)cn(S(=O)(=O)c3ccc(C)cc3)c2c1` [II, bis(indolyl)-4-trifluoromethylpyridine], the 50% inhibitory concentration (IC50) (usually the midpoint of a concentration-inhibition curve) was 1.7 µM in the test on A549 cell line and 4.3 µM with P388 cell line.
Take `COCCn1cc(-c2nc(-c3c[nH]c4ncccc34)cs2)c2cc(OC)ccc21` [III]: the “CDK1 activity in vitro” value in the test on CDK1 was “inhibiting CDK1 activity in vitro”. Also, in the test with MCF7 cancer cell line, the antitumor activity result is recorded as “demonstrated antitumor activity”.
In the test on HCT-116 cells, `COc1cccc2c1C(=O)c1c(O)c3c(c(O)c1C2=O)C[C@@](O)(C(=O)CO)C[C@@H]3O[C@H]1C[C@H](N)[C@H](O)[C@H](C)O1` [doxorubicin, reference compound] displayed an IC50 of 10.1 µM.
